Data as given in PMC8879200, “Design, Synthesis, and Biological Evaluation of 4,4’-Difluorobenzhydrol Carbamates as Selective M1 Antagonists” (Pharmaceuticals, 2022).

Columns and labels:
[1] = target: T1, hM1 (Homo sapiens, UniProt P11229); test: Competitive [3H]NMS radioligand binding, CHO-hM1 cell membranes; details: for Displacement ± SD of [3H]NMS binding, hM1: single ligand concentration corresponding to a Ki of 1 µM (Cheng-Prusoff); for Ki: inhibition of [3H]NMS binding, CHO-hM1 membranes, read-out: Affinity: Ki ± SD, hM1
T1 construct: host or cells: CHO-K1, stably transfected
T1 sequence (P11229 1-460): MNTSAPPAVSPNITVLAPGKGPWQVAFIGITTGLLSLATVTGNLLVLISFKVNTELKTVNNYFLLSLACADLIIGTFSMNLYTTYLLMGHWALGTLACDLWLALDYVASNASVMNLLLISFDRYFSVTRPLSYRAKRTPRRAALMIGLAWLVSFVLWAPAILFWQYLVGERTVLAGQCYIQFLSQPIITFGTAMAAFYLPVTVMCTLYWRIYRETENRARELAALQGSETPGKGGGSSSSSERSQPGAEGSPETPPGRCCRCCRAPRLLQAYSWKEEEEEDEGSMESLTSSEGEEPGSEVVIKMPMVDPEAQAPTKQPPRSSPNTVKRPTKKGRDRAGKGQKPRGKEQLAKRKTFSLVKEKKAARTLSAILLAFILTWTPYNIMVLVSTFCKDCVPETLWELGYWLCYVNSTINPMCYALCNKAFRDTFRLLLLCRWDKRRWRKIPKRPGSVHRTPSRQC
Description: (§1) We first assessed the carbamates’ affinities for human muscarinic acetylcholine receptors subtypes hM1–5 by means of a competitive radioligand binding assay displacing [N-methyl-^3H]scopolamine methyl chloride ([^3H]NMS) in cell membranes expressing the individual receptors.
(§2) Cell membranes bearing hM1-hM5 receptors were prepared as described previously. Briefly, stably transfected CHO-K1 cells were grown to at least 80% confluency in T175 flasks, washed with ice-cold DPBS, and scraped into a mixture of ice-cold of 2 mL 10 mM Tris-HCl, 1 mM EDTA-buffer, pH 7.4 and 200 µL protease inhibitor. A cell homogenate was prepared by passing the cell suspension through a G29 needle. The cell homogenates corresponding to two T175 flasks were combined and subsequently centrifuged (10 min, 1000 × g, 4 °C). Ultracentrifugation of the supernatant (1 h, 100,000 × g, 4 °C) yielded a membrane pellet, which was suspended in 250 µL 50 mM Tris-HCl buffer, pH 7.4 and stored at −80 °C.
(§3) Maximum binding was measured by using 5 µL DMSO, and nonspecific binding was measured by using 5 µL of 1 µM scopolamine in DMSO. […] The membrane-bound radioactivity was recovered by filtration through Whatman™ GF/B glass fibre filters pre-soaked in aqueous 0.1% PEI using an M-36 tygon tubed cell harvester (Brandel®, Gaithersburg, MD, USA). Membranes were washed 3 times with ice-cold washing buffer (50 mM Tris, pH 7.4) before being dried, transferred to 2 mL scintillation cocktail (UltimaGold™, high flashpoint LSC cocktail, PerkinElmer, Waltham, MA, USA) and counted in a β -counter (Hidex TDCR Liquid Scintillation Counter in CPM mode). IC50 values were calculated by a variable slope logistic regression using at least five distinct concentrations of test compounds, pipetted in triplicates.

[2] = target: T2, hM2 (Homo sapiens, UniProt P08172); test: Competitive [3H]NMS radioligand binding, CHO-hM2 cell membranes; details: for Displacement ± SD of [3H]NMS binding, hM2: single ligand concentration corresponding to a Ki of 1 µM (Cheng-Prusoff); for Ki: read-out: Affinity: Ki ± SD, hM2
T2 construct: host or cells: CHO-K1, stably transfected
T2 sequence (P08172 1-466): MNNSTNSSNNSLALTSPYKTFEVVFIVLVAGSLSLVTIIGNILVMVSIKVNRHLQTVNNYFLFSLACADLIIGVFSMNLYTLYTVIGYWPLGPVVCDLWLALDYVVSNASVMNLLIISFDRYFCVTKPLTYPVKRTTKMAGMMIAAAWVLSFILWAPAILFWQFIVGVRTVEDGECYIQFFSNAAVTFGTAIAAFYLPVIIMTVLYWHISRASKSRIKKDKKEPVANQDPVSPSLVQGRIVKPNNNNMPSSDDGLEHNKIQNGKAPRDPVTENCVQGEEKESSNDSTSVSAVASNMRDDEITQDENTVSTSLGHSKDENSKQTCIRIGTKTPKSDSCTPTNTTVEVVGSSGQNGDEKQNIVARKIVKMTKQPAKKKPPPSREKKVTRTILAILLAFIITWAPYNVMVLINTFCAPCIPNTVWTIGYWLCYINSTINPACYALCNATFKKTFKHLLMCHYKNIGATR
Description: as §1, §2, §3

[3] = target: T3, hM3 (Homo sapiens, UniProt P20309); test: Competitive [3H]NMS radioligand binding, CHO-hM3 cell membranes; details: for Displacement ± SD of [3H]NMS binding, hM3: single ligand concentration corresponding to a Ki of 1 µM (Cheng-Prusoff); for Ki: read-out: Affinity: Ki ± SD, hM3
T3 construct: host or cells: CHO-K1, stably transfected
T3 sequence (P20309 whole entry): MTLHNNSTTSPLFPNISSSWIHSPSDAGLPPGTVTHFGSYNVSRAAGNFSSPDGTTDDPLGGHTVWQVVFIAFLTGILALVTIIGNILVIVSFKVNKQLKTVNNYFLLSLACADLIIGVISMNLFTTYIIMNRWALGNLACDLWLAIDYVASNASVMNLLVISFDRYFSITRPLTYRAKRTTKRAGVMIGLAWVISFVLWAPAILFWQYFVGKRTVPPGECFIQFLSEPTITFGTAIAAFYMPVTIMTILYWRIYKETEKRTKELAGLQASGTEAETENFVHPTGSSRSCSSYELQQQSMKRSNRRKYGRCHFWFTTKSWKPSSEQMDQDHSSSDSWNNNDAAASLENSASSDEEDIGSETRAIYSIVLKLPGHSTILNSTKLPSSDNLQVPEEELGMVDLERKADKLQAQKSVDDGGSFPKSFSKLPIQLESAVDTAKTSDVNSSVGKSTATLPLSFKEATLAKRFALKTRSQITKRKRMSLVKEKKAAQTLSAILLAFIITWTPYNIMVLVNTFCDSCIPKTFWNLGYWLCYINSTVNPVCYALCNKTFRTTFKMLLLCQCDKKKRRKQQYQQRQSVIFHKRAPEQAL
Description: as §1, §2, §3

[4] = target: T4, hM4 (Homo sapiens, UniProt P08173); test: Competitive [3H]NMS radioligand binding, CHO-hM4 cell membranes; details: for Displacement ± SD of [3H]NMS binding, hM4: single ligand concentration corresponding to a Ki of 1 µM (Cheng-Prusoff); for Ki: inhibition of [3H]NMS binding, CHO-hM4 membranes, read-out: Affinity: Ki ± SD, hM4
T4 construct: host or cells: CHO-K1, stably transfected
T4 sequence (P08173 1-479): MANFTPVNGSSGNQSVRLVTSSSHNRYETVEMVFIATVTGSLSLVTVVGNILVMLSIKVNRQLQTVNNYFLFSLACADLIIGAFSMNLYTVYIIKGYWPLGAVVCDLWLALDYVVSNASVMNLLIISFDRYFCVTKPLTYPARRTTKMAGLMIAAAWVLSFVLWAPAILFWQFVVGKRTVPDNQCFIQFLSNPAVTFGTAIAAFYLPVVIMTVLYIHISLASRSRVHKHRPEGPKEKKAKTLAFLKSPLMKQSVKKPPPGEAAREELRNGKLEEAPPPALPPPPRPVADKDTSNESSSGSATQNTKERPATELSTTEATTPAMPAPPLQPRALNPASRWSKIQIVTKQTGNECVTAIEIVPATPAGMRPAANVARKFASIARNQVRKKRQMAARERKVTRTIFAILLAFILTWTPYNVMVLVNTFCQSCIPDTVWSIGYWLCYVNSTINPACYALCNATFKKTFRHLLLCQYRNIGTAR
Description: as §1, §2, §3

[5] = target: T5, hM5 (Homo sapiens, UniProt P08912); test: Competitive [3H]NMS radioligand binding, CHO-hM5 cell membranes; details: for Displacement ± SD of [3H]NMS binding, hM5: single ligand concentration corresponding to a Ki of 1 µM (Cheng-Prusoff); for Ki: inhibition of [3H]NMS binding, CHO-hM5 membranes, read-out: Affinity: Ki ± SD, hM5
T5 construct: host or cells: CHO-K1, stably transfected
T5 sequence (P08912 1-532): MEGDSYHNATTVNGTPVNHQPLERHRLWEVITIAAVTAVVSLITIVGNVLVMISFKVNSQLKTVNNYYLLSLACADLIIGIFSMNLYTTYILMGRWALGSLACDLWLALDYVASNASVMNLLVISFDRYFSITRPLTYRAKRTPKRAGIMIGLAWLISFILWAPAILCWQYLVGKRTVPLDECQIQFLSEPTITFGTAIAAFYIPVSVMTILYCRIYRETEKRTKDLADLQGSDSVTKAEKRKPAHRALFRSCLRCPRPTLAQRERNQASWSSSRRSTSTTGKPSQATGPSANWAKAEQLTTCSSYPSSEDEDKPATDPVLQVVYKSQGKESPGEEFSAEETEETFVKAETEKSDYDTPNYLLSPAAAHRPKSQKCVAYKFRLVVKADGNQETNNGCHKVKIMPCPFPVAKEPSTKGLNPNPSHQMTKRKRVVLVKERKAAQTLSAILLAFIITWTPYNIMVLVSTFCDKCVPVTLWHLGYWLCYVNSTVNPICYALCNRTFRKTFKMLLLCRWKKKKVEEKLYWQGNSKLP
Description: as §1, §2, §3

[6] = High throughput HPLC-logD (lipophilicity); details: pH 7.4
Description: Briefly, a mixture of toluene (≥98%, Sigma-Aldrich, St. Louis, MO, USA) and triphenylene (≥99.9%, Carl Roth, Karlsruhe, Germany) was used as internal standard. Each sample was dissolved in the internal standard mixture. Using gradient elution, the injection volume was set to 7 µL, the flow rate was 1.5 mL/min, and the mobile phase consisted of a mixture of methanol and 0.01 M sodium phosphate buffer pH 7.4. The HPLC-logD values were derived from the measured retention times following the previously published equation [27, 30].

[7] = Stability in fully supplemented RPMI1640 cell culture medium; format: in vitro ADME; details: fully supplemented RPMI1640, ambient temperature, after 24 h
Description: Since the decomposition in cell culture medium of compounds designated for biological testing could impair potential assay readouts, the stabilities of one tertiary carbamate (3) and one secondary carbamate (7) were investigated as representatives for the compound set 1–12. Gratifyingly, the rate of decomposition in fully supplemented RPMI1640 cell culture medium at ambient temperature has been fairly slow, with > 95% of both compounds remaining intact after 24 h (Supplementary Materials, Figure S3). Such stability is adequate with the requirements for carbon-11 labelled PET tracers of around 2–3 half-lives.
The stabilities of 3 and 7 were measured using the HPLC gradient method as described for the purity determination. 4 µL of a test compound’s stock solution in DMSO was diluted with fully supplemented RPMI1640 cell culture medium (10% FBS, 1% L-glutamine, without antibiotics). The stability was measured at ambient temperature and the column oven was set to 20 °C. The samples were measured at 0, 30, 60, 120 min and 24 h.

SMILES | Displacement ± SD of [3H]NMS binding, hM1 [1] | Displacement ± SD of [3H]NMS binding, hM2 [2] | Displacement ± SD of [3H]NMS binding, hM3 [3] | Displacement ± SD of [3H]NMS binding, hM4 [4] | Displacement ± SD of [3H]NMS binding, hM5 [5] | chromatographic logD [6] | Compound remaining intact in cell culture medium [7] | Ki [1] | Ki [2] | Ki [3] | Ki [4] | Ki [5] | x-Fold selectivity for hM1 vs. hM2 ([2]; ratio of Ki values hM2/hM1) | x-Fold selectivity for hM1 vs. hM3 ([3]; ratio of Ki values hM3/hM1) | x-Fold selectivity for hM1 vs. hM4 ([4]; ratio of Ki values hM4/hM1) | x-Fold selectivity for hM1 vs. hM5 ([5]; ratio of Ki values hM5/hM1)
CN1CCC(NC(=O)OC(c2ccc(F)cc2)c2ccc(F)cc2)CC1 [Compound 6, Bis(4-fluorophenyl)methyl (1-methylpiperidin-4-yl)carbamate] | 52 ± 8% | 10 ± 7% | 29 ± 5% | 48 ± 9% | 54 ± 8% | 3.25 ± 0.04 |  |  |  |  |  |  |  |  |  | 
CN1CCCC(NC(=O)OC(c2ccc(F)cc2)c2ccc(F)cc2)C1 (centres unmarked) [Compound 7, Bis(4-fluorophenyl)methyl (1-methylpiperidin-3-yl)carbamate] |  |  |  |  |  | 2.2 ± 0.2 | > 95% | 1.22 ± 0.06 nM | 32.8 ± 11.4 nM | 16.1 ± 4.5 nM | 6.2 ± 2.1 nM | 3.7 ± 1.3 nM |  |  |  | 
CN1CCC(CNC(=O)OC(c2ccc(F)cc2)c2ccc(F)cc2)C1 (centres unmarked) [Compound 10, Bis(4-fluorophenyl)methyl ((1-methylpyrrolidin-3-yl)methyl)carbamate] |  |  |  |  |  | 2.69 ± 0.01 |  | 239 ± 67.9 nM | > 1000 nM | 277 ± 45.4 nM | 238 ± 104 nM | 295 ± 32.8 nM | >4 fold | 1.2 fold | 1.0 fold | 1.2 fold
CN1CCCC1CCNC(=O)OC(c1ccc(F)cc1)c1ccc(F)cc1 (centres unmarked) [Compound 11, Bis(4-fluorophenyl)methyl (2-(1-methylpyrrolidin-2-yl)ethyl)carbamate] | 53 ± 8% | 37 ± 15% | 62 ± 3% | 54 ± 13% | 59 ± 17% | 2.5 ± 0.3 |  |  |  |  |  |  |  |  |  | 
CN1CCOCC1CNC(=O)OC(c1ccc(F)cc1)c1ccc(F)cc1 (centres unmarked) [Compound 12, Bis(4-fluorophenyl)methyl ((4-methylmorpholin-3-yl)methyl)carbamate] | 39 ± 5% | 8 ± 5% | 25 ± 9% | 20 ± 8% | 43 ± 11% | 2.82 ± 0.04 |  |  |  |  |  |  |  |  |  | 
